Reference: patent US20240294550A1, “8-OXA-3-AZABICYCLO[3.2.1]OCTANE COMPOUNDS OR SALT THEREOF, AND PREPARATION METHOD AND USE THEREOF” (LITTDD MEDICINES LTD, priority 2021, published 2024)
Converted amounts (≈) assume the structure as drawn. Like-named read-outs stand apart in the source and are kept apart here.

Legend:
LOVO cells = assay: Cell proliferation assay (CellTiter-Glo); format: cell-based; details: Homo sapiens, 96 hours
Experimental: The cell proliferation inhibition effect of the compound of the invention was tested using CellTiter-Glo™ cell viability assay kit. This kit uses luciferase as the detector. During the luminescence process, the luciferase requires the participation of ATP. CellTiter-Glo™ reagent was added to the cell culture medium, and the luminescence value was measured. The light signal is proportional to the amount of ATP present in the system, and ATP positively correlates with the number of viable cells present, thus the cell proliferation activity is measured.
Cell culture and seeding: LOVO cells in logarithmic growth phase (human colon carcinoma cells) (ATCC CCL-229) were harvested and counted using a platelet counter. Trypan blue exclusion method was used to detect the cell viability to ensure that the cell viability was above 90%. 90 μL of cell suspension (RPMI1640+10% fetal bovine serum) was added to a 96-well transparent flat-bottom black-wall plate (Thermo, 165305) respectively, and the cell concentration was adjusted to 3000/well/90 μl. Cells in the 96-well plate were incubated overnight at 37° C., 5% CO2 with 95% humidity (Thermo, Model 3100 Series).
Firstly, DMSO was used as the solvent to prepare 10 mM mother solution of the test compounds, and then PBS was used to dilute 100 times to prepare a solution of 10 times of final concentration, the highest concentration was 100 μM. 10 μL solution of the test compounds was added to each well of the 96 well plate inoculated with cells, namely the solution was further diluted 10 times to reach the final concentration of 10 μM. Starting from 10 μM, the final concentration of the test compound was 3-fold serially diluted, with 9 concentrations in total with 3 triplicates for each concentration. The 96 well plates with the test compounds and cells were incubated at 37° C., 5% CO2 and 95% humidity for 96 hours, and then CellTiter Glo analysis was performed.
CellTiter-Glo Reagents (CellTiter Glo R Luminescent Cell Viability Assay, Promega, G7572) were melted and the 96-well plates were equilibrated to room temperature for 30 minutes. An equal volume of CellTiter-Glo solution was added to each well, and the cells were lysed by shaking on the fixed orbit shaker for 5 minutes. The assay plates were left at room temperature for 20 minutes to stabilize the luminescence signal, and the luminescence signals were read using the SpectraMax multi-labeled microplate detector (MD, M3).
Data were analyzed using GraphPad Prism 7.0 software, fitted with non-linear S-curve regression to derive the dose-response curves, and IC50 values were calculated therefrom.
Cell survival rate (%)=(LumDrug to be tested−LumCulture medium control)/(LumCell control−LumCulture medium control)×100%

[1] = Pharmacokinetic (PK) assay in mice; format: in vivo; details: CD-1 mice; for half-life / Vd / bioavailability / C0 / AUC(0-t) / Cmax: mouse, plasma; for Vd: read-out: Vss; for bioavailability: Po dose 5 mg/kg vs IV dose 1 mg/kg; for AUC(0-t): read-out: AUC0-24 h
Experimental: The PK of each compound was determined as follows: 6 CD-1 mice (obtained from Shanghai Lingchang Biotechnology Co., Ltd.) were divided into two groups, 3 mice in each group. […] Blood samples were collected from saphenous vein of lower leg in each group at 0, 0.083, 0.25, 0.5, 1, 2, 4, 6, 8 and 24 h after administration. Approximately 40 μL of the blood samples were collected in anticoagulant tubes containing EDTA-K2. Immediately after collection, the tubes were inverted at least 5 times to ensure adequate mixing, and then placed on ice. The blood samples collected at each time point were centrifuged at 4° C., 8000 rpm for 5 minutes to obtain plasma. Another 1.5 mL centrifuge tube was marked with the compound name, animal number, and time point, and the plasma was transferred to this tube. The plasma was stored at −80° C. until analysis.
Compound concentrations in plasma were determined by UPLC-MS/MS method, and the pharmacokinetic parameters were calculated by Phoenix WinNolin 6.4 pharmacokinetic software on the obtained data.

ATR = ATR (Homo sapiens (Human), UniProt Q13535); assay: ATR kinase inhibition assay (HTRF); format: biochemical; details: p53 substrate, ATP 150 nM
Experimental: This experiment adopted Homogeneous time-resolved fluorescence technology (HTRF®) of Cisbio Company for assay.
Experiment method: buffers were prepared as follows:
Preparation of solutions of the test compounds: The example compounds shown in the table below were prepared into solutions using DMSO as solvent, the stock solution typically being 10 mM. The maximum starting concentration in this experiment was 3 μM, DMSO 3-fold serial dilutions for concentrations, the serially diluted solution was added to each well of the corresponding 384-well plate (geriner bio-one, Cat #784075) to give final concentrations of 3000, 1000, 333, 111, 37, 12.3, 4.12, 1.37, 0.457, 0.152 nM, respectively, and the corresponding amount of DMSO was added to the additional wells to be used as negative or positive control wells, respectively.
The enzyme and substrate were separately dissolved and diluted in two tubes with the buffer prepared above at the following concentrations:
5 μL of the ATR protein solution from tube A was added to the compound-containing wells and the negative control wells in the assay plates using an electric multichannel pipettor, and the same volume of the prepared buffer (medium only, no enzyme) was added to the positive control wells. The plates were centrifuged for one minute at 1000 rpm, and then placed in an incubator at 25° C. for 15 minutes. 5 μL of the substrate mix solution from tube B was added to the positive control well, negative control well and the compound-containing well of the assay plates in the same manner, centrifuged and incubated at 25° C. for 90 minutes.
During the reaction, after ATR phosphorylated the substrate p53, two antibodies were added. Among them, anti-phospho-p53-Eu, as an energy donor, can specifically bind to the phosphorylation site of p53, while anti-GST-d2, as an energy receptor, can specifically bind to the GST-tagged p53. Upon excitation by a laser with certain wavelength (the excitation wavelength in this experiment is 340 nm), the energy donor can emit emission light of 615 nm, and when the energy donor and the energy receptor are close enough in space (that is, two antibodies are connected to p53 at the same time), energy transfer can occur between the energy donor and the energy receptor, so that the energy receptor can emit emission light of 665 nm. The two emission lights were detected by a plate reader, and the ratio of the signals at 665 nm and 615 nm was calculated. The IC50 of the samples tested can be obtained by plotting and calculation.
10 μL per well of the detection solution was added to the positive control, negative control and compound wells of the assay plate using an electric multichannel pipette, centrifuged and incubated overnight at 4° C., and read with the plate reader Envision 2104.
Compound inhibition rate was calculated using interpolation. The mean values of the positive and negative controls were calculated respectively, and the following formula was used to calculate the inhibition rates of the compounds:
Inhibition rate Minimum response+(Compound concentration ^Curve slope)*(Maximum response−Minimum response)/(Compound concentration^Curve slope+Half inhibition concentration ^Curve slope)
The IC50 value of each compound to enzyme activity was obtained.

[2] = Equilibrium solubility in FaSSIF; format: physicochemical; details: thermodynamic from solid; FaSSIF pH 6.5, shaken 24 hours
Experimental: The compound powder was weighed into a volumetric flask, 450 μL of pH 6.5 FaSSIF solution was added to obtain a supersaturated suspension, the samples were vortexed for at least 2 minutes, and the volumetric flasks were shaken on a vibrating screen at 800 rpm for 24 hours, and then centrifuged at 4000 rpm for 20 minutes. The compressed filtrate was added to a HPLC system, and the concentrations were calculated by a standard curve method.

[3] = Metabolic stability in mouse liver microsomes; format: in vitro ADME, CD-1 mice; details: for half-life at 1 μM: CD-1, 1 μM compound; for microsomal CLint at 1 μM: CD-1, read-out: CLint(mic)
Experimental: (§1) Drug-like Properties: Concepts, Structure Design and Methods: from ADME to Toxicity Optimization. […] Screen. […] After incubation for appropriate time (such as 5, 10, 20, 30 and 60 minutes), samples were collected, and an appropriate termination solution (glacial acetonitrile containing 200 ng/mL tolbutamide and 200 ng/mL labetalol (i.e. acetonitrile at 4° C.)) was added to stop the reaction. Sample treatment (n=1): each appropriate sample was added, vortexed and centrifuged at high speed. The supernatants were collected, and detected the substrate by HPLC-MS/MS. The peak area at the 0 min was set as 100%. The peak areas at other time points were converted to percentages of the remaining amount. The natural logarithms of the percentage of remaining amount at each time point was plotted against the incubation time, and the slope (−k) was calculated. Then, Clint (μL/min/mg) and half-life (T½, min) of the compounds were calculated following the equation: Inherent clearance rate (Clint)=(k*Volume of incubation solution)/Mass of liver microsomes.

[4] = Metabolic stability in human liver microsomes; format: in vitro ADME; details: for half-life at 1 μM: 1 μM compound; for microsomal CLint at 1 μM: read-out: CLint(mic)
Experimental: as §1

Chain of ATR (Q13535 whole entry): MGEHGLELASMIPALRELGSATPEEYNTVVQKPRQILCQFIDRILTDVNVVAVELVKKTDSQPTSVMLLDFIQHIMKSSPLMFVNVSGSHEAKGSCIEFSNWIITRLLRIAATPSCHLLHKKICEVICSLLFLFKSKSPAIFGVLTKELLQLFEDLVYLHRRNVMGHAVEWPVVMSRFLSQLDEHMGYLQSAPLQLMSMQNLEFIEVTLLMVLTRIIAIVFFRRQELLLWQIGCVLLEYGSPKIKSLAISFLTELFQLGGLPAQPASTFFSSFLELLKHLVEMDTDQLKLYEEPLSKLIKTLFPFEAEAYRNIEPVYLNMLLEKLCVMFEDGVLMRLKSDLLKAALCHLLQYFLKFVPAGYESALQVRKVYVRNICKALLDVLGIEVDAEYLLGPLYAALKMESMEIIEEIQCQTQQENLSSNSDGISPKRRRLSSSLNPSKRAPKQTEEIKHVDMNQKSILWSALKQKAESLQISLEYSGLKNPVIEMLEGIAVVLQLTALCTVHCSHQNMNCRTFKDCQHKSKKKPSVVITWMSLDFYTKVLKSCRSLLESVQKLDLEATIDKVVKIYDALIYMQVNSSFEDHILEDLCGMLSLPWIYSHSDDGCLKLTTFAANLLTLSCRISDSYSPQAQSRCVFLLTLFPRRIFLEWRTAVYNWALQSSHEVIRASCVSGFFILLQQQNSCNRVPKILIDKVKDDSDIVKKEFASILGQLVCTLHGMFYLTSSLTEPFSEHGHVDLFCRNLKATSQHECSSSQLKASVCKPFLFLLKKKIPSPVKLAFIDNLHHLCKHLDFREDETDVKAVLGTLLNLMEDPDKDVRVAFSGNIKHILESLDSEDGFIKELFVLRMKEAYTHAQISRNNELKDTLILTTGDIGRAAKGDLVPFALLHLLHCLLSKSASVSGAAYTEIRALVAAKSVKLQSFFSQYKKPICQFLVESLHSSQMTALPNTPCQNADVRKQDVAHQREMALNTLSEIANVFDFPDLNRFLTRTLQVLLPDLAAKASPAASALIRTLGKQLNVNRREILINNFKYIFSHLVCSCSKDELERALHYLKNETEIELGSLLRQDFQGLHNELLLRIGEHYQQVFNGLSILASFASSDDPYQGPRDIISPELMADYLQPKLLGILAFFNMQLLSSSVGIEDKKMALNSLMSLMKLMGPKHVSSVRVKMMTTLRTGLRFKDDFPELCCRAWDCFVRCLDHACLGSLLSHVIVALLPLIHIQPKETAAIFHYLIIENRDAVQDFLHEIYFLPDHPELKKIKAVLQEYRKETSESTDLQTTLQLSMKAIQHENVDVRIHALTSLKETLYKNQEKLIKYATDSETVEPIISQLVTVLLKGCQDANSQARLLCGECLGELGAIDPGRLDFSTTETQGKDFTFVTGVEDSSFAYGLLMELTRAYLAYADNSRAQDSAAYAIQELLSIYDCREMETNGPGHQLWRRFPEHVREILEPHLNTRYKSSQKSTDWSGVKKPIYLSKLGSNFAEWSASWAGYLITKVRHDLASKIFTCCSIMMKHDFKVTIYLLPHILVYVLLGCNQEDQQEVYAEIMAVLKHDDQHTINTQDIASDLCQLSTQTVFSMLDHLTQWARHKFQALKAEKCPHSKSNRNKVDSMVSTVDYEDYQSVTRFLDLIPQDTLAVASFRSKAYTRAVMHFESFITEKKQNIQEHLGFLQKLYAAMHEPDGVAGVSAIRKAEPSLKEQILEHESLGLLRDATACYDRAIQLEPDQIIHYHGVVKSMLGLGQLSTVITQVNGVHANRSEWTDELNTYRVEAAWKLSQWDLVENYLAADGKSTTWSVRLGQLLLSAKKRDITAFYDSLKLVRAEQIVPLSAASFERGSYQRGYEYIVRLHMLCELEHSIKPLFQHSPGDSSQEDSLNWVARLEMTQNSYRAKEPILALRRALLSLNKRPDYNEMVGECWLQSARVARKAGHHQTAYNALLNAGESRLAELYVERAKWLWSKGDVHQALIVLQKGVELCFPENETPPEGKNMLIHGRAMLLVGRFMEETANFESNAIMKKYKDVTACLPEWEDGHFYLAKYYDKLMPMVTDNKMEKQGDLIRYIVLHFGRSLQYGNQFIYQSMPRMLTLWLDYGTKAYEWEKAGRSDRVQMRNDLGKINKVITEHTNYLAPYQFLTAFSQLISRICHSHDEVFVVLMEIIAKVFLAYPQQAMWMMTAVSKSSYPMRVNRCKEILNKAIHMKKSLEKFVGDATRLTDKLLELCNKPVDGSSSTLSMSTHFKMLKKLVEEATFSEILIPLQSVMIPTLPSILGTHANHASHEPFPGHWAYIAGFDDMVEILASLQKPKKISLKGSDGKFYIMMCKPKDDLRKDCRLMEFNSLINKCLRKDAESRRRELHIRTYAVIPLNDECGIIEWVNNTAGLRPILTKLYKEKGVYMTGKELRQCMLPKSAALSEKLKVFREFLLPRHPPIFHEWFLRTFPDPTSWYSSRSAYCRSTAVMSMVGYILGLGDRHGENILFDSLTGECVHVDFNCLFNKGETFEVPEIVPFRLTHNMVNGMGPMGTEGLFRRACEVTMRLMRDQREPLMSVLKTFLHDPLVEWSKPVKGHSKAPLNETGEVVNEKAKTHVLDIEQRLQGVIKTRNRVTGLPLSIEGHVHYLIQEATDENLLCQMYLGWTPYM
Chain of ATR (Q8WXE1 whole entry partner): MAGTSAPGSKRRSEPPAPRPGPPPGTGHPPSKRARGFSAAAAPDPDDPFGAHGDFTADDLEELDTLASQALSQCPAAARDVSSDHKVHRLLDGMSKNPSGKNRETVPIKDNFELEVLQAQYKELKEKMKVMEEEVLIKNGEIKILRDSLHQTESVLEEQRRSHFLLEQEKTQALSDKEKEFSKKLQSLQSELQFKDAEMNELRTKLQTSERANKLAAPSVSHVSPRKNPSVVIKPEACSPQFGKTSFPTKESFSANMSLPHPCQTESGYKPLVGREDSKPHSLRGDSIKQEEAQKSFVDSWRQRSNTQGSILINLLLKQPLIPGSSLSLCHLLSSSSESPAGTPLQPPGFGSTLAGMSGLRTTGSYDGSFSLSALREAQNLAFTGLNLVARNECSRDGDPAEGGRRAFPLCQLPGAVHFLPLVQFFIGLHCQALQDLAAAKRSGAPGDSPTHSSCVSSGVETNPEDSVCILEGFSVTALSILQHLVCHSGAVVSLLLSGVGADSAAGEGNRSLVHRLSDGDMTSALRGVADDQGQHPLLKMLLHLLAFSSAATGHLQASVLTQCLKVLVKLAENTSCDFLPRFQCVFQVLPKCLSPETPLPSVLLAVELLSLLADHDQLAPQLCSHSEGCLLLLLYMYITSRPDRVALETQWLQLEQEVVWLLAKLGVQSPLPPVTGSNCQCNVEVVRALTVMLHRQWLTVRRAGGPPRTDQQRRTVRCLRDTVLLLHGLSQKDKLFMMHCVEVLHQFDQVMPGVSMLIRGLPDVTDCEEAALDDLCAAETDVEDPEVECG

## C[C@@H]1COCCN1c1cc(N2CC3CCC(C2)O3)nn2c(-c3cc[nH]n3)ncc12 [Example 3, 3-(4-((R)-3-methylmorpholino)-7-(1H-pyrazol-3-yl)imidazo[1,5-b]pyridazin-2-yl)-8-oxa-3-azabicyclo[3.2.1]octane]
LOVO cells
  IC50: 67 nM
[1]; IV dose 1 mg/kg
  CL_obs: 10.0 mL/min/kg
  half-life: 7.56 h
  Vd: 1.03 L/kg
  C0: 2860 ng/mL
  AUC(0-t): 1650 ng·h/mL
[1]; Po dose 5 mg/kg
  half-life: 3.99 h
  Cmax: 3150 ng/mL
  AUC(0-t): 6460 ng·h/mL
[1]
  bioavailability: 77.5%
ATR
  IC50: 5.9 nM
[2]
  solubility at 24 h: 1140 µg/mL (≈ 2890 µM)

## C[C@@H]1COCCN1c1cc(N2CC3CCC(C2)O3)nc2c1cnn2-c1cc[nH]n1 [Example 5, 3-(4-((R)-3-methylmorpholino)-1-(1H-pyrazol-3-yl)-1H-pyrazolo[3,4-b]pyridin-6-yl)-8-oxa-3-azabicyclo[3.2.1]octane]
LOVO cells
  IC50: 384 nM
[1]; IV dose 1 mg/kg
  CL_obs: 6.15 mL/min/kg
  half-life: 3.45 h
  Vd: 0.75 L/kg
  C0: 2180 ng/mL
  AUC(0-t): 2700 ng·h/mL
[1]; Po dose 5 mg/kg
  half-life: 2.58 h
  Cmax: 3020 ng/mL
  AUC(0-t): 9330 ng·h/mL
[1]
  bioavailability: 69%
[3]
  half-life at 1 μM: 1.12 h
  microsomal CLint at 1 μM: 20.5 µL/min/mg
  Remain % (T = 60 min): 56.6%
ATR
  IC50: 8.2 nM
[4]
  half-life at 1 μM: > 2.42 h
  Remain % (T = 60 min): 77.1%
  microsomal CLint at 1 μM: < 9.6 µL/min/mg

## c1cc(-c2ncc3c(N4CC5CCC(C4)O5)cc(N4CC5CCC(C4)O5)nn23)n[nH]1 [Example 6, 3-(4-(8-oxa-3-azabicyclo[3.2.1]octan-3-yl)-7-(1H-pyrazol-3-yl)imidazo[1,5-b]pyridazin-2-yl)-8-oxa-3-azabicyclo[3.2.1]octane]
LOVO cells
  IC50: 97 nM
[3]
  half-life at 1 μM: 0.56 h
  microsomal CLint at 1 μM: 41.3 µL/min/mg
  Remain % (T = 60 min): 30.7%
ATR
  IC50: 13.2 nM
[4]
  half-life at 1 μM: > 2.42 h
  Remain % (T = 60 min): 74.8%
  microsomal CLint at 1 μM: < 9.6 µL/min/mg

## CC(=O)N1CCN(c2cc(N3C[C@H]4CC[C@@H](C3)O4)nn3c(-c4cc[nH]n4)ncc23)[C@H](C)C1 [Example 29, 1-((R)-4-(2-((1R,5S)-8-oxa-3-azabicyclo[3.2.1]octan-3-yl)-7-(1H-pyrazol-3-yl)imidazo[1,5-b]pyridazin-4-yl)-3-methylpiperazin-1-yl)ethan-1-one]
LOVO cells
  IC50: 488 nM
ATR
  IC50: 4.5 nM

## C[C@@H]1CC(F)(F)CCN1c1cc(N2CC3CCC(C2)O3)nn2c(-c3cc[nH]n3)ncc12 [Example 31, 3-(4-((R)-4,4-difluoro-2-methylpiperidin-1-yl)-7-(1H-pyrazol-3-yl)imidazo[1,5-b]pyridazin-2-yl)-8-oxa-3-azabicyclo[3.2.1]octane]
LOVO cells
  IC50: 158 nM
ATR
  IC50: 3.9 nM

## C[C@H]1CC(F)(F)CCN1c1cc(N2CC3CCC(C2)O3)nn2c(-c3cc[nH]n3)ncc12 [Example 32, 3-(4-((S)-4,4-difluoro-2-methylpiperidin-1-yl)-7-(1H-pyrazol-3-yl)imidazo[1,5-b]pyridazin-2-yl)-8-oxa-3-azabicyclo[3.2.1]octane]
LOVO cells
  IC50: 156 nM
ATR
  IC50: 5.6 nM

## CC(=O)N1CCN(c2cc(N3C[C@H]4CC[C@@H](C3)O4)nc3c2cnn3-c2cc[nH]n2)[C@H](C)C1 [Example 34, 1-((R)-4-(6-((1R,5S)-8-oxa-3-azabicyclo[3.2.1]octan-3-yl)-1-(1H-pyrazol-3-yl)-1H-pyrazolo[3,4-b]pyridin-4-yl)-3-methylpiperazin-1-yl)ethan-1-one]
LOVO cells
  IC50: 424 nM
ATR
  IC50: 7.6 nM

## OCC1COCCN1c1cc(N2C[C@H]3CC[C@@H](C2)O3)nc2c1cnn2-c1cc[nH]n1 (stereo partly drawn) [Example 35, (4-(6-((1R,5S)-8-oxa-3-azabicyclo[3.2.1]octan-3-yl)-1-(1H-pyrazol-3-yl)-1H-pyrazolo[3,4-b]pyridin-4-yl)morpholin-3-yl)methanol]
LOVO cells
  IC50: 522 nM
ATR
  IC50: 15.3 nM

## CC1(C)COCCN1c1cc(N2CC3CCC(C2)O3)nc2c(-c3ccn[nH]3)cnn12 [Example 36, 3-(7-(3,3-dimethylmorpholino)-3-(1H-pyrazol-5-yl)pyrazolo[1,5-a]pyrimidin-5-yl)-8-oxa-3-azabicyclo[3.2.1]octane]
LOVO cells
  IC50: 148 nM
ATR
  IC50: 6.2 nM
